# Measurements as given in ChEMBL document CHEMBL3885861, “Open TG-GATES”.
# Organism: Rattus norvegicus
# Assay: Open TG-GATES - Regimen: Single
# Format: toxicity, organism-based, Sprague-Dawley
# Parameters: regimen Single, gender Male, age 6 weeks
# Conditions: in vivo, po, 100 mg/kg, route gavage, dose level Middle; for APTT / Bas / Eos / Fbg / Hb / Ht / Lym / MCH / MCHC / MCV / Mono / Neu / PT / Plat / RBC / Ret / WBC: tissue Blood; for KIDNEY_L / KIDNEY_R / KIDNEY_TOTAL: tissue Kidney; for LIVER: tissue Liver; for A/G / ALP / ALT / AST / BUN / CRE / Ca / Cl / DBIL / GLC / IP / K / LDH / Na / PL / RALB / TBIL / TC / TG / TP / gamma-GTP: tissue Plasma
structure (smiles),measurement,setting,value
Nc1ccc(Cc2ccc(N)cc2)cc1,TERMINAL_BW,3 h,212.4 g
same,APTT,3 h,14.4 s
same,Bas,3 h,0%
same,Eos,3 h,0.6%
same,Fbg,3 h,268.8 mg/dL
same,Hb,3 h,13 g/dL
same,Ht,3 h,38%
same,Lym,3 h,75.8%
same,MCH,3 h,21 pg
same,MCHC,3 h,34.2%
same,MCV,3 h,61.4 fL
same,Mono,3 h,3.8%
same,Neu,3 h,19.4%
same,PT,3 h,11.7 s
same,Plat,3 h,154.4 x10_4/uL
same,RBC,3 h,618.6 x10_4/ul
same,Ret,3 h,8.7%
same,WBC,3 h,83.6 x10_2/uL
same,KIDNEY_L,3 h,0.8 g
same,KIDNEY_R,3 h,0.9 g
same,KIDNEY_TOTAL,3 h,1.7 g
same,LIVER,3 h,9.1 g
same,A/G,3 h,0.8
same,ALP,3 h,1470.6 IU/L
same,ALT,3 h,45.6 IU/L
same,AST,3 h,82.8 IU/L
same,BUN,3 h,11 mg/dL
same,CRE,3 h,0.2 mg/dL
same,Ca,3 h,10.9 mg/dL
same,Cl,3 h,104 meq/L
same,DBIL,3 h,0.028 mg/dL
same,GLC,3 h,173.6 mg/dL
same,IP,3 h,9.4 mg/dL
same,K,3 h,4 meq/L
same,LDH,3 h,64.4 IU/L
same,Na,3 h,140.2 meq/L
same,PL,3 h,155.6 mg/dL
same,RALB,3 h,2.5 g/dL
same,TBIL,3 h,0.074 mg/dL
same,TC,3 h,86.4 mg/dL
same,TG,3 h,73 mg/dL
same,TP,3 h,5.6 g/dL
same,gamma-GTP,3 h,1.2 IU/L
same,TERMINAL_BW,6 h,206.8 g
same,APTT,6 h,14.6 s
same,Bas,6 h,0%
same,Eos,6 h,0.6%
same,Fbg,6 h,278 mg/dL
same,Hb,6 h,13.4 g/dL
same,Ht,6 h,39.2%
same,Lym,6 h,62.4%
same,MCH,6 h,21.2 pg
same,MCHC,6 h,34.1%
same,MCV,6 h,62.3 fL
same,Mono,6 h,3.6%
same,Neu,6 h,32.2%
same,PT,6 h,11.8 s
same,Plat,6 h,144.9 x10_4/uL
same,RBC,6 h,630.2 x10_4/ul
same,Ret,6 h,8.2%
same,WBC,6 h,104 x10_2/uL
same,KIDNEY_L,6 h,0.9 g
same,KIDNEY_R,6 h,0.9 g
same,KIDNEY_TOTAL,6 h,1.9 g
same,LIVER,6 h,9.3 g
same,A/G,6 h,0.8
same,ALP,6 h,1520.8 IU/L
same,ALT,6 h,42.8 IU/L
same,AST,6 h,94.8 IU/L
same,BUN,6 h,8.8 mg/dL
same,CRE,6 h,0.2 mg/dL
same,Ca,6 h,10.5 mg/dL
same,Cl,6 h,104.6 meq/L
same,DBIL,6 h,0.1 mg/dL
same,GLC,6 h,176.2 mg/dL
same,IP,6 h,9.5 mg/dL
same,K,6 h,4 meq/L
same,LDH,6 h,90 IU/L
same,Na,6 h,140.2 meq/L
same,PL,6 h,152.4 mg/dL
same,RALB,6 h,2.5 g/dL
same,TBIL,6 h,0.2 mg/dL
same,TC,6 h,79 mg/dL
same,TG,6 h,53.2 mg/dL
same,TP,6 h,5.6 g/dL
same,gamma-GTP,6 h,2.6 IU/L
